# From patent publication US12383534B2, “Methods for treating cancer” (REGENTS OF THE UNIVERSITY OF MINNESOTA, priority 2021, dated 2025)
# Tests used:
# CDS cell lines = conditions: screens of FDA-approved anticancer molecules; cited from earlier work
# Kitra-SRS cells (IGF-1R) = conditions: cited from earlier work
# [1] = test system: NCC-CDS-X1 cells (CIC-DUX4 sarcoma cell line); assay: Cell viability (ATP) assay in NCC-CDS-X1 cells; format: cell-based, human
# Procedure: Basal media were purchased from HyClone, fetal bovine serum (FBS) was from PeakSerum (Ps-FB3, lot 293Q16), and Glutamax (Glu) and Penicillin/Streptomycin (P/S) were from GIBCO. NCC-CDS-X1 (CIC-DUX4 sarcoma cell line, a generous gift from Tadashi Kondo) cell line was cultured in RPMI with 10% FBS, Glu and P/S, Kitra-SRS (CIC-DUX4 sarcoma cell line, a generous gift from Hidetatsu Otani), 3T3, 293T and C2C12 cell lines were cultured in DMEM/10% FBS/Glu/P/S. The immortalized human myoblast LHCN-M2 cell line was cultured in proliferation medium: F10 supplemented with 20% FBS, 2-mercaptoethanol 1× (GIBCO), 10^−9 M dexamethasone (Sigma), 10 ng/mL bFGF (Peprotech), and Glu/P/S. All cells were cultured at 37° C. in a 5% CO2 atmosphere.
# Cell lines were plated in a 96 well dish (1×10^5 cells/well), and the following day were treated with iP300w or its stereoisomers. ATP assays were performed using CellTiter-Glo® Luminescent Cell Viability Assay (Promega) according to the manufacturer's instructions. Luminescence was analyzed on POLARstar Optima Microplate Reader (BMG Labtech, Offenburg, Germany).
# The activity of the various iP300w stereoisomers against NCC-CDS-X1 cells was evaluated. Cultures were treated with serial dilutions, ranging from 0.003 μM to 3.0 μM, for up to 96 hours. In cells treated with iP300w, a significant decrease in cell viability was evident at the lowest concentration (0.003 μM) at 48 and 96 hours (FIG. 3A). The effect was dose- and time-dependent. […] (FIG. 2B and FIG. 9).
# [2] = test system: wide spectrum of cancer cell lines; conditions: cited from earlier work
# [3] = test system: CIC-DUX4 target genes ETV1, 4, and 5; assay: RT-qPCR for CIC-DUX4 target genes in NCC-CDS-X1 cells; format: cell-based, human; conditions: NCC-CDS-X1, 24 hours, highest concentration
# Procedure: RNA was extracted using an RNA extraction kit (Zymo) and cDNA was made using 0.5 μg total RNA with oligo-dT primer and Verso cDNA Synthesis Kit (Thermo Scientific) following the manufacturer's instructions. qPCRs were performed by using Premix Ex Taq (Probe qPCR, Takara) or SYBR-green. Gene expression levels were normalized to that of GAPDH and analyzed with 7500 System Software using the ACT method (Applied Biosystems). RNA-seq library preparation was done with 500 ng total RNA from NCC-CDS-X1 cells treated for 4 or 24 hours with iP300w (0.3 μM) using the Swift Rapid RNA Library Kit (SwiftBioscience). 36 base paired-end sequencing was performed on an Illumina NextSeq instrument at the University of Minnesota Genomics Center.
# Next, the effect of the stereoisomers on the CIC-DUX4 target genes in cells cultured with the compounds for 24 hours was analyzed.
# p300 and CBP = conditions: in vitro and in vivo; cited from earlier work
smiles,measurement,setting,value
C[C@@H](Oc1cc(-c2cnn(C3CCNCC3)c2)cnc1N)c1c(Cl)ccc(F)c1Cl [crizotinib],effectiveness in vitro on CDS cell lines,CDS cell lines,some degree of effectiveness in vitro
CC(C)C[C@H](NC(=O)[C@H](Cc1ccccc1)NC(=O)c1cnccn1)B(O)O [bortezomib],effectiveness in vitro on CDS cell lines,CDS cell lines,some degree of effectiveness in vitro
C[C@]1(O)C[C@@H](c2nc(-c3ccc4ccc(-c5ccccc5)nc4c3)c3c(N)nccn32)C1 [linsitinib],effect on cell proliferation,Kitra-SRS cells (IGF-1R),reduced cell proliferation
"CNC(=O)Nc1ccc2c(c1)CC[C@@]21OC(=O)N(CC(=O)N(Cc2ccc(F)cc2)[C@@H](C)C(F)(F)F)C1=O [A-485, reference compound]",fold less potent than iP300w (from IC50 values),"[1]; NCC-CDS-X1, IC50 at 48 and 96 hours",approximately 200 fold
same,activity on cell viability,"[1]; NCC-CDS-X1, up to 96 hours, 0.003 to 3.0 μM","also showed activity, but at higher concentrations"
same,efficacy against melanoma and NUT midline carcinoma,[2]; high MITF-expressing melanoma cell lines and NUT midline carcinoma,effective against high MITF-expressing melanoma cell lines
same,effect on proliferation of cancer cell lines,[2]; more prominently in those of hematopoietic origin,suppress proliferation of a wide spectrum of cancer cell lines
same,effect on ETV4 expression at the highest concentration,[3],notable effect on ETV4
same,inhibition of acetylation by p300 and CBP,p300 and CBP,inhibit acetylation by p300 and CBP both in vitro and in vivo
